From patent US6767902B2, “Androgen as a male contraceptive and non-contraceptive androgen replacement” (The Population Council, Inc., priority 1997, dated 2004)

Columns and labels:
[1] = MENT Ac subcutaneous implants in healthy men: serum MENT levels and in vivo release; design: species or system human
Procedure: (§1) Forty-five healthy, normal male subjects were selected for a study of the contraceptive effect of androgens alone. Subjects were treated over the course of four weeks, during which extensive blood work-ups were undertaken. The subjects were divided into three groups of 15 each. Group A received one subcutaneous implant, Group B received two subcutaneous implants and Group C received four subcutaneous implants. Implants remained in place for 28 consecutive days.
(§2) The total duration of the study was 42 days. Each man included in the study was assessed through a medical history and a complete general physical examination and a determination of general eligibility. Subjects were tested on a weekly basis for six consecutive weeks at approximately the same time each day. Day 1 was the date of the subdermal implant's insertion and Day 29 was removal. On the last day of the study, Day 43, subjects received a general physical examination, as well as an additional battery of blood tests. Blood samples for hormone immuno assays MENT (7 mL), FSH, LH and testosterone (5 mL for the last 3 hormones together) were obtained during pre-admission and each subsequent visit.

[2] = system: serum levels of LH, FSH, T and DHT; test: MENT Ac subcutaneous implants in healthy men for 28 days: serum hormone levels; format: in vivo, human
Procedure: as §1, §2
FIG. 2 illustrates the effect of MENT Ac implants on mean serum LH concentration. […] By suppressing LH, testosterone production is suppressed. […] A reduction in testosterone reduces or eliminates spermatogenesis. However, because androgen is being supplied, sexual function is generally maintained.
Finally, FIG. 3 illustrates the effect of MENT Ac implants on the mean serum FSH concentration. […] FSH stimulates germ cell production. If germ cells are present, but testosterone is insufficient, then spermatogenesis cannot take place and sperm cells will not be produced. Similarly, if FSH concentrations are low enough, germ cells will not be produced and spermatogenesis cannot take place irrespective of testosterone levels.

[3] = system: serum levels of LH, FSH and T; test: Multiple-dose daily i.m. injection of MENT in normal men for six days: serum hormone levels; format: in vivo, human
Procedure: Two multiple injection studies were undertaken in which groups of four normal, non-sterile men each received 1, 2 or 4 mg of MENT daily by intramuscular (i.m.) injection for six consecutive days (24 men, 12 in each study). The formulation in each injection included the appropriate amount of MENT suspended in 27.6 mg/mL of polyethylene glycol, 1.8 mg/mL of Tween 80 and 8.3 mg/mL of sodium chloride. Serum FSH, LH and testosterone levels were measured daily. The results are illustrated in FIGS. 7-12.
The values returned to the normal range by day 15-30 of the study period. With reference to FIG. 8 (open boxes connected by a line=1 mg, closed boxes connected by a line=2 mg, open circles connected by a line=4 mg) a dose of at least 4 mg was required to obtain serum levels of FSH below two international units (“IU”) per liter by day 6. This must be compared with the results obtained by the use of 1000 μg (1 mg) of the same androgen delivered by a subcutaneous implant as illustrated in FIGS. 2-4 and Example 1. Therefore, considerably more of this same androgen was required to obtain certain depressed serum levels of LH, FSH and testosterone in males when the androgen was administered through a once-a-day intramuscular injection when compared to continuous release implants. […] FIG. 7 illustrates the level of serum LH achieved in the first study and FIG. 9 illustrates the level of serum testosterone achieved. FIGS. 10-12 illustrate the levels of LH, FSH and testosterone realized by the same protocol at the second testing site. Both the data and the overall trends of both studies are largely the same.

prostate = conditions: in the potency ranges contemplated; cited from earlier work
[4] = single implant, about 500 micrograms MENT Ac per day, about 28 days
[5] = two implants simultaneously, about 1,000 micrograms MENT Ac per day

Q: Which release rate ([1]; 4.4 cm implant, drug load 112±4 mg MENT Ac, based on an in vivo study) does the source give for `CC(=O)O[C@H]1CC[C@H]2[C@H]3[C@H](CC[C@]12C)[C@H]1CCC(=O)C=C1C[C@H]3C` [MENT Ac] here?
A: The release rate was “approximately 500 micrograms per implant per day”.

Q: What about the bioavailability from implants ([1]; certain subcutaneous implants, MENT Ac compared with MENT) of the same compound?
A: The bioavailability from implants was “superior in terms of bioavailability”.

Q: What about the “hydrolysis to MENT” value ([1]; in vivo) of the same compound?
A: The value was “readily hydrolyzed to MENT”.

Q: And the “mean serum LH concentration” value ([2]; 2 or 4 implants (500 micrograms each), day 8)?
A: The value was “nearly undetectable levels of LH”.

Q: What about the “mean serum LH concentration” value ([2]; first post implant visit on day 8, one, two or four implants) of the same compound?
A: The value was “dropped significantly”.

Q: And the “levels of LH, FSH and testosterone” value ([2]; four 500 microgram per day implants simultaneously)?
A: The value was “very comparable to those obtained at the 1000 microgram per day level”.

Q: And the “mean serum FSH concentration” value ([2]; one, two or four implants)?
A: The value was “significant impact on the serum FSH concentration”.

Q: What about the “mean serum T concentration (testosterone)” value ([2]; single implant) of the same compound?
A: The value was “much reduced levels of testosterone”.

Q: What about the “daily blood levels of FSH (average)” value [2, 4] of the same compound?
A: Its value is “above 2 IU/L”.

Q: What about the “daily blood levels of LH (average)” value [2, 4] of the same compound?
A: Its value is “below 2 IU/L”.

Q: And the “daily blood levels of testosterone” value [2, 4]?
A: The value was “about 5.0 nmol/liter”.

Q: What about the “daily blood levels of FSH (average)” value [2, 5] of the same compound?
A: Its value is “less than 0.5 IU/L”.

Q: What about the “daily blood levels of LH (average)” value [2, 5] of the same compound?
A: Its value is “less than 0.5 IU/L”.

Q: And the “daily blood levels of testosterone” value [2, 5]?
A: The value was “about 1.0 nmol/liter”.

Q: And the “mean serum T concentration (testosterone)” value ([2]; two or four implants)?
A: Its value is “very low testosterone levels”.

Q: Which “result in terms of testosterone (contraceptive adequacy)” value ([3]; 1 mg MENT by i.m. injection once a day) does the source give for `C[C@@H]1CC2=CC(=O)CC[C@@H]2[C@H]2CC[C@]3(C)[C@@H](O)CC[C@H]3[C@@H]21` [MENT, 7α-methyl-19-nortestosterone] here?
A: The value was “inadequate for contraceptive purposes”.

Q: And the “contraceptive adequacy from serum testosterone (FIGS. 9 and 12)” value ([3]; 4 mg MENT by once-a-day i.m. injection)?
A: The value was “sufficient to ensure that some level of effective contraception is obtained”.

Q: What about the “serum gonadotropins and testosterone levels” value ([3]; 1, 2 or 4 mg MENT daily i.m. for six days, both studies) of the same compound?
A: The value was “gradual decrease”.

Q: And the “time at which serum gonadotropins and testosterone reached their lowest levels” value ([3]; 1, 2 or 4 mg MENT daily i.m., end of treatment)?
A: The value was “six”.

Q: What about the “study day by which values returned to the normal range” value ([3]; after 1, 2 or 4 mg MENT daily i.m. for six days) of the same compound?
A: Its value is 15 to 30 days.

Q: What about the “dose required to obtain serum levels of FSH below two IU per liter by day 6” value ([3]; daily i.m. injection, first study, FIG. 8) of the same compound?
A: Its value is “at least 4 mg”.

Q: And the “levels of the metabolite DHT” value ([2]; MENT Ac implants, FIG. 5)?
A: Its value is “actually decreased”.

Q: And the “stimulation of the prostate” value (prostate)?
A: Its value is “stimulates the prostate to a much lower degree”.

Q: Which “stimulation of the prostate” value (prostate) does the source give for `C[C@]12CC[C@H]3[C@@H](CCC4=CC(=O)CC[C@@]43C)[C@@H]1CC[C@@H]2O` [testosterone, reference compound] here?
A: The value was “can overstimulate the prostate”.
